# Laboratory results as given in US6184231A, “3-substituted-4-arylquinolin-2-one derivatives as potassium channel modulators” (priority 1999, dated 2001).
# System: intracavernous pressure (ICP/BP) response
# Experiment: in vivo model on erectile function, cavernous nerve stimulation
# Design: species or system rat
# Conditions: 0.1-1.0 mg/kg i.v., anesthetized rats
# Text: The in vivo model on erectile function is described fully in the scientific literature [Rehman, J., Chenven, E., Brink, P. Peterson, B., Wolcott, B., Wen, Y. P., Melman, A., Christ, G.: Diminished neurogenic but not pharmacological erections in the 2- to 3-month experimentally diabetic F-344 rat. Am. J. Physiol. 272: H1960-H1971, (1997)]. Briefly, rats (250-600 g) were anesthetized using sodium pentobarbital, the abdomen opened and the cavernous nerve identified. A pressure catheter was placed in the right corpus cavernosum (crus) to measure intracavernous pressure (ICP). A second catheter was introduced into the carotid artery to measure blood pressure. Test compound (0.1, 0.3 and 1 mg/kg iV.) or vehicle (PEG 400) was given via a catheter placed into the jugular vein.
# Control intracavernous pressure responses were elicited by electrically stimulating the cavernous nerve via bipolar stimulating electrodes (20 Hz, 0.22 ms pulse width). Stimulus amplitude (0.2-20 mA) was adjusted to produce a submaximal intracavernous pressure response (typically 0.2 or 0.5 mA). A series of control intracavernous pressure responses were then obtained using a constant stimulus amplitude. Test compound or vehicle was then administered (200 μl i.v bolus) and the cavernous nerve was restimulated to evoke a cavernous pressure response at various times post-drug administration. […]
row,SMILES,ICP/BP ratio elicited by sub-maximal stimulation of the cavernous nerve
1,"O=c1[nH]c2ccc(C(F)(F)F)cc2c(-c2cc(Cl)ccc2O)c1CCO [Example 20, 4-(5-Chloro-2-hydroxyphenyl)-3-(2-hydroxyethyl)-6-(trifluoromethyl)-2(1H)-quinolinone]",significant increase

# System: cloned mammalian (mSlo or hSlo) BK channels
# Experiment: BK-mediated outward current, two-electrode voltage clamp in Xenopus oocytes
# Assay type: cell-based
# Conditions: at 20 μM; percent increase over BK current in controls; IBTX-sensitive current; at least 5 oocytes
# Procedure: The ability of compounds described in the present invention to open BK channels and increase whole-cell outward (K^+) BK-mediated currents was assessed under voltage-clamp conditions by determining their ability to increase cloned mammalian (mSlo or hSlo) BK --mediated outward current heterologously expressed in Xenopus oocytes [Butler, A., et al., Science, 261: 221-224 (1993); and Dworetzky, S. I., et al., Mol. Brain Res., 27: 189-193 (1994)]. The two BK constructs employed represent nearly structurally identical homologous proteins, and have proven to be pharmacologically identical in our tests. To isolate BK current from native (background, non-BK) current, the specific and potent BK channel-blocking toxin iberiotoxin (IBTX) [Galvez, A., et al., J. Biol. Chem., 265: 11083-11090 (1990)] was employed at a supramaximal concentration (50 nM). The relative contribution of BK channels current to total outward current was determined by subtraction of the current remaining in the presence of IBTX (non-BK current) from the current profiles obtained in all other experimental conditions (control, drug, and wash). […] All compounds were tested in at least 5 oocytes and are reported at the single concentration of 20 μM; the effect of the selected compounds of Formula I on BK current was expressed as the percent of control IBTX-sensitive current and is listed in Table I. Recordings were accomplished using standard two-electrode voltage clamp techniques [Stuhmer, W., et al., Methods in Enzymology, Vol. 207: 319-339 (1992)]; voltage-clamp protocols consisted of 500-750 ms duration step depolarizations from a holding potential of -60 mV to +140 mV in 20 mV steps. The experimental media (modified Barth's solution) consisted of (in mM): NaCl (88), NaHCO3 (2.4), KCl (1.0), HEPES (10), MgSO4 (0.82), Ca(NO3)2 (0.33), CaCl2 (0.41); pH 7.5.
row,SMILES,BK Current
1,"COc1ccc(Cl)cc1-c1c(CO)c(=O)[nH]c2cc(C(F)(F)F)ccc12 [Example 3, 4-(5-Chloro-2-methoxyphenyl)-3-(hydroxymethyl)-7-(trifluoromethyl)-2(1H)-quinolinone]",+ (+ = 100-200%)
2,"COc1ccc(Cl)cc1-c1c(C=O)c(=O)[nH]c2ccc(C(F)(F)F)cc12 [Example 4, 4-(5-Chloro-2-methoxyphenyl)-1,2-dihydro-2-oxo-6-(trifluoromethyl)-3-quinolinecarboxaldehyde]",+ (+ = 100-200%)
3,"COc1ccc(Cl)cc1-c1c(CCCO)c(=O)[nH]c2ccc(C(F)(F)F)cc12 [Example 8, 4-(5-Chloro-2-methoxyphenyl)-3-(3-hydroxypropyl)-6-(trifluoromethyl)-2(1H)-quinolinone]",++ (++ = >200%)
4,"O=c1[nH]c2ccc(C(F)(F)F)cc2c(-c2cc(Cl)ccc2O)c1CO [Example 9, 4-(5-Chloro-2-hydroxyphenyl)-3-(hydroxymethyl)-6-(trifluoromethyl)-2(1H)-quinolinone]",++ (++ = >200%)
5,"O=c1[nH]c2ccc(C(F)(F)F)cc2c(-c2cc(Cl)ccc2O)c1/C=C(\F)CO [Example 17, (Z)-4-(5-Chloro-2-hydroxyphenyl)-3-(2-fluoro-3-hydroxy-1-propenyl)-6-(trifluoromethyl)-2(1H)-quinolinone]",+ (+ = 100-200%)
6,"COc1ccc(Cl)cc1-c1c(/C=C(/F)CO)c(=O)[nH]c2ccc(C(F)(F)F)cc12 [Example 18, (E)-4-(5-Chloro-2-methoxyphenyl)-3-(2-fluoro-3-hydroxy-1-propenyl)-6-(trifluoromethyl)-2(1H)-quinolinone]",+ (+ = 100-200%)
7,"O=c1[nH]c2ccc(C(F)(F)F)cc2c(-c2cc(Cl)ccc2O)c1CCO [Example 20, 4-(5-Chloro-2-hydroxyphenyl)-3-(2-hydroxyethyl)-6-(trifluoromethyl)-2(1H)-quinolinone]",++ (++ = >200%)
8,"COc1ccc(Cl)cc1-c1c(CCO)c(=O)[nH]c2ccc(C(F)(F)F)cc12 [Example 21, 4-(5-Chloro-2-methoxyphenyl)-3-(2-hydroxyethyl)-6-trifluoromethyl-2(1H)-quinolinone]",++ (++ = >200%)
9,"O=c1[nH]c2ccc(C(F)(F)F)cc2c(-c2cc(Cl)ccc2O)c1Cc1ccc(O)cc1 [Example 30, 4-(5-Chloro-2-hydroxyphenyl)-3-[(4-hydroxyphenyl)methyl]-6-(trifluoromethyl)-2(1H)-quinolinone]",++ (++ = >200%)
10,"Nc1ccc(-c2c(-c3cc(Cl)ccc3O)c3cc(C(F)(F)F)ccc3[nH]c2=O)cc1 [Example 32, 4-(5-Chloro-2-hydroxyphenyl)-3-(4-aminophenyl)-6-(trifluoromethyl)-2(1H)-quinolinone]",++ (++ = >200%)
11,"Cc1c(-c2cc(Cl)ccc2O)c2cc(C(F)(F)F)ccc2[nH]c1=O [Example 34, 4-(5-Chloro-2-hydroxyphenyl)-3-methyl-6-(trifluoromethyl)-2(1H)-quinolinone]",++ (++ = >200%)
12,"COc1ccc(Cl)cc1-c1c(C=NO)c(=O)[nH]c2ccc(C(F)(F)F)cc12 [Example 39, 4-(5-Chloro-2-methoxyphenyl)-1,2-dihydro-2-oxo-6-(trifluoromethyl)-3-quinolinecarboxaldehyde oxime]",++ (++ = >200%)

# System: cortical infarct volume
# Experiment: permanent focal ischemia, middle cerebral artery occlusion (MCAO) model
# Assay type: in vivo, spontaneously hypertensive rat
# Conditions: 0.003 mg/kg i.v. single bolus 2 hours after MCAO; infarct measured 24 hours after MCAO; vs vehicle-treated control
# Text: To determine the ability of these compounds to reduce cell loss resulting from neuronal ischemia, a standard rodent model of permanent focal ischemia, involving occlusion of the middle cerebral artery in the spontaneously hypertensive rat (middle cerebral artery occlusion (MCAO) model) was employed [Tamura, A., et al., Journal of Cerebral Blood Flow and Metabolism, Volume 1, 53-60, (1981)].
# Selected compounds have been evaluated in the focal stroke model involving permanent MCAO in the spontaneously hypertensive rat. This procedure results in a reliably large neocortical infarct volume that is measured by means of vital dye exclusion in serial slices through the brain 24 hours after MCAO. In the present test, compounds were administered using an intravenous route of administration at 2 hours after occlusion.
row,SMILES,reduction of cortical infarct volume
1,"COc1ccc(Cl)cc1-c1c(CCO)c(=O)[nH]c2ccc(C(F)(F)F)cc12 [Example 21, 4-(5-Chloro-2-methoxyphenyl)-3-(2-hydroxyethyl)-6-trifluoromethyl-2(1H)-quinolinone]",about 25%
